How the values were obtained:
Conditions in all cases: 72 h
[1] = tested on: Caco-2; test: cell viability relative to DMSO; higher = less toxic
[2] = tested on: Calu-3; test: as above
[3] = tested on: HepG2; test: as above
[4] = tested on: U2OS; test: as above
[5] = tested on: Vero E6; test: as above
[6] = tested on: Caco-2; test: relative viability EC50 (midpoint between 100% and the lowest measured viability); higher = less toxic
[7] = tested on: Calu-3; test: as above
[8] = tested on: HepG2; test: as above
[9] = tested on: U2OS; test: as above
[10] = tested on: Vero E6; test: as above
[11] = tested on: Caco-2; test: drug sensitivity score (DSS) for viability; higher = more toxic; extreme values may be limits of the assay
[12] = tested on: Calu-3; test: as above
[13] = tested on: HepG2; test: as above
[14] = tested on: U2OS; test: as above
[15] = tested on: Vero E6; test: as above

| SMILES | cell viability ([1]; 1 nM) [%] | cell viability ([1]; 10 nM) [%] | cell viability ([1]; 100 nM) [%] | cell viability ([1]; 1000 nM) [%] | cell viability ([1]; 10000 nM) [%] | cell viability ([2]; 1 nM) [%] | cell viability ([2]; 10 nM) [%] | cell viability ([2]; 100 nM) [%] | cell viability ([2]; 1000 nM) [%] | cell viability ([2]; 10000 nM) [%] | cell viability ([3]; 1 nM) [%] | cell viability ([3]; 10 nM) [%] | cell viability ([3]; 100 nM) [%] | cell viability ([3]; 1000 nM) [%] | cell viability ([3]; 10000 nM) [%] | cell viability ([4]; 1 nM) [%] | cell viability ([4]; 10 nM) [%] | cell viability ([4]; 100 nM) [%] | cell viability ([4]; 1000 nM) [%] | cell viability ([4]; 10000 nM) [%] | cell viability ([5]; 1 nM) [%] | cell viability ([5]; 10 nM) [%] | cell viability ([5]; 100 nM) [%] | cell viability ([5]; 1000 nM) [%] | cell viability ([5]; 10000 nM) [%] | relative viability EC50 [6] [µM] | relative viability EC50 [7] [µM] | relative viability EC50 [8] [µM] | relative viability EC50 [9] [µM] | relative viability EC50 [10] [µM] | drug sensitivity score [11] | drug sensitivity score [12] | drug sensitivity score [13] | drug sensitivity score [14] | drug sensitivity score [15] |
| --- | --- | --- | --- | --- | --- | --- | --- | --- | --- | --- | --- | --- | --- | --- | --- | --- | --- | --- | --- | --- | --- | --- | --- | --- | --- | --- | --- | --- | --- | --- | --- | --- | --- | --- | --- |
| CN1CCN(CC(=O)N2c3ccccc3C(=O)Nc3cccnc32)CC1 [pirenzepine] | 85.5 | 103 | 99.9 | 93.9 | 95 | 97.5 | 87.3 | 104 | 96.3 | 103 | 113 | 99.9 | 88.9 | 103 | 97.7 | 96.1 | 93.8 | 99.6 | 98.7 | 101 | 103 | 101 | 98.4 | 103 | 102 | > 10 | > 10 | > 10 | > 10 | > 10 | 0 | 0 | 0 | 0 | 0 |
| C=CCN1CC[C@]23c4c5ccc(O)c4O[C@H]2/C(=N/NC(=O)c2ccccc2)CC[C@@]3(O)[C@H]1C5 [naloxone-benzoylhydrazone] | 91.7 | 93.8 | 101 | 94.7 | 112 | 95.4 | 95.8 | 89.4 | 103 | 112 | 101 | 99.5 | 102 | 96.4 | 101 | 100 | 101 | 97.4 | 103 | 105 | 97.9 | 102 | 102 | 97.2 | 107 | > 10 | > 10 | > 10 | > 10 | > 10 | 0 | 0 | 0 | 0 | 0 |
| Cc1ccc2c(c1)Cc1c(C(=O)NN3CCCCC3)nn(-c3ccc(Cl)cc3Cl)c1-2 [GP1a] | 102 | 102 | 103 | 99.5 | 84.1 | 99.6 | 101 | 91.8 | 101 | 86.7 | 100 | 96.9 | 98.4 | 91.9 | 91.3 | 99.4 | 108 | 97.7 | 101 | 89.7 | 99.9 | 100 | 103 | 100 | 98.6 | > 10 | > 10 | > 10 | > 10 | > 10 | 0.3 | 0.1 | 0 | 0 | 0 |
| CCc1ccccc1OC[C@@H](O)CN[C@H]1CCCc2ccccc21 | 102 | 98.9 | 100 | 95.6 | 87.6 | 104 | 98.5 | 99.7 | 91.1 | 80.8 | 95.6 | 103 | 99.1 | 99.9 | 89.5 | 96.6 | 92.2 | 98.2 | 95.5 | 87 | 94.7 | 97.2 | 89.5 | 95.3 | 106 | > 10 | > 10 | > 10 | > 10 | > 10 | 0.3 | 1.4 | 0 | 0 | 0 |
| Nc1ccn([C@H]2C[C@H](O)[C@@H](CO)O2)c(=O)n1 [torcitabine] | 105 | 95 | 101 | 97.1 | 86.5 | 100 | 94.6 | 91.9 | 99.9 | 85.6 | 105 | 94.3 | 94.6 | 104 | 98.8 | 102 | 106 | 99.1 | 104 | 95.5 | 104 | 95.7 | 90.2 | 95.2 | 101 | > 10 | > 10 | > 10 | > 10 | > 10 | 0.3 | 0 | 0 | 0 | 0 |
| OC[C@H]1O[C@H](O[C@]2(CCl)O[C@H](CCl)[C@@H](O)[C@@H]2O)[C@H](O)[C@@H](O)[C@H]1Cl [sucralose] | 96.8 | 94.1 | 99.1 | 95.9 | 101 | 99.6 | 91.8 | 98.5 | 99.1 | 95.5 | 99.1 | 97.7 | 96.8 | 96.2 | 97 | 102 | 100 | 103 | 96 | 103 | 100 | 102 | 101 | 106 | 92.7 | > 10 | > 10 | > 10 | > 10 | > 10 | 0 | 0 | 0 | 0 | 0 |
| COc1ccc2c(c1)c(C1=C(c3c[nH]c4ccccc34)C(=O)NC1=O)cn2CCCN(C)C [go-6983] | 110 | 95.6 | 108 | 101 | 85.7 | 98.9 | 85.1 | 99 | 83.9 | 84 | 105 | 94.7 | 87.1 | 105 | 31.7 | 94.4 | 92.2 | 104 | 91.4 | 79.6 | 108 | 104 | 97.7 | 103 | 75.3 | > 10 | > 10 | 3.52 | > 10 | > 10 | 0.2 | 1.2 | 3.4 | 1.6 | 0.7 |
| Cc1cc(C)nc(NS(=O)(=O)c2ccc(NC(=S)NC(=O)COc3ccc(Br)cc3Cl)cc2)n1 [ZCL-278] | 97.7 | 102 | 104 | 92.2 | 98.7 | 98.4 | 94.8 | 103 | 104 | 107 | 108 | 98.1 | 100 | 96.4 | 98.4 | 95.6 | 100 | 93.5 | 97.9 | 93.8 | 93.4 | 97.5 | 101 | 103 | 95.9 | > 10 | > 10 | > 10 | > 10 | > 10 | 0 | 0 | 0 | 0 | 0 |
| CC(=O)[C@@]1(O)CC[C@H]2[C@@H]3C[C@H](C)C4=CC(=O)C=C[C@]4(C)[C@@]3(F)[C@@H](O)C[C@@]21C [fluorometholone] | 94.1 | 96.2 | 96.4 | 99.7 | 124 | 93.2 | 98.3 | 94.1 | 92.5 | 87.9 | 96.3 | 96.7 | 101 | 90.8 | 96.9 | 96.4 | 97.9 | 91.1 | 97 | 92.3 | 105 | 101 | 102 | 97.5 | 101 | > 10 | > 10 | > 10 | > 10 | > 10 | 0 | 0 | 0 | 0 | 0 |
| CC(C)Oc1cccc(CC(=O)N2CCC[C@](CC[N+]34CCC(c5ccccc5)(CC3)CC4)(c3ccc(Cl)c(Cl)c3)C2)c1 | 102 | 99.7 | 100 | 97.9 | 91.8 | 87.6 | 98.1 | 91.1 | 92.5 | 99.1 | 110 | 84.1 | 104 | 91 | 95.7 | 96.8 | 99.4 | 96.8 | 99.3 | 98.8 | 101 | 98.2 | 100 | 95.8 | 97 | > 10 | > 10 | > 10 | > 10 | > 10 | 0 | 0 | 0 | 0 | 0 |
| CC(C)N(CCCNC(=O)Nc1ccc(C(C)(C)C)cc1)C[C@H]1O[C@@H](n2cc(Br)c3c(N)ncnc32)[C@H](O)[C@@H]1O [SGC-0946] | 91.2 | 98.7 | 101 | 103 | 101 | 96 | 106 | 93.9 | 101 | 95.2 | 92.1 | 96.6 | 106 | 104 | 96.6 | 92.3 | 102 | 99.7 | 112 | 107 | 94.4 | 95.7 | 93 | 97.6 | 110 | > 10 | > 10 | > 10 | > 10 | > 10 | 0 | 0 | 0 | 0 | 0 |
| CCc1nc2c(C)nc(C)cc2n1-c1ccc(CCNC(=O)NS(=O)(=O)c2ccc(C)cc2)cc1 [grapiprant] | 101 | 90.4 | 101 | 102 | 93.8 | 102 | 89.9 | 103 | 96.1 | 104 | 103 | 101 | 104 | 99.2 | 97.6 | 98 | 96.3 | 97.7 | 99.3 | 96.8 | 101 | 97.7 | 97.3 | 95.6 | 96.6 | > 10 | > 10 | > 10 | > 10 | > 10 | 0 | 0 | 0 | 0 | 0 |
| CC(=O)O[C@H]1C[C@H](O[C@H]2[C@@H](O)C[C@H](O[C@H]3[C@@H](O)C[C@H](O[C@H]4CC[C@@]5(C)[C@H](CC[C@@H]6[C@@H]5C[C@@H](O)[C@]5(C)[C@@H](C7=CC(=O)OC7)CC[C@]65O)C4)O[C@@H]3C)O[C@@H]2C)O[C@H](C)[C@H]1O[C@@H]1O[C@H](CO)[C@@H](O)[C@H](O)[C@H]1O [lanatoside-C] | 102 | 99 | 66.4 | 17.6 | 18.4 | 107 | 95.1 | 80.7 | 30.6 | 18.7 | 99.4 | 97.7 | 83.3 | 30.9 | 5.9 | 101 | 97.3 | 87.4 | 3.4 | 6.7 | 92.5 | 92 | 23.4 | 0.8 | 0.9 | 0.116 | 0.248 | 0.396 | 0.211 | 0.0458 | 19.5 | 15.2 | 15 | 19.5 | 27.8 |
